Measurements as given in patent US20050059645A1, “Methods for the treatment of male and female sexual dysfunction” (priority 2003, published 2005).
Read-outs that look alike come from different tables or passages of the source.

How the values were obtained:
[1] = tested on: ovariectomized female rats; assay: Lordosis behavior test (lordosis quotient) in ovariectomized female rats; type: in vivo, rat
Protocol: Thus, lordosis was selected as an indicator of restoration of female sexual function in ovariectomized female rats and an appropriate indicator for alleviating symptoms of female sexual dysfunction.
Adult female Sprague Dawley rats (220-250 g) from Charles River Hungary Ltd., Godollo, Hungary, were used. Animals were kept in community cages (4 animals/cage) in a climate-controlled room (23±2° C., 50-60% humidity), with a 14 hour light, 10 hour dark cycle of artificial lighting, using reversed light/dark cycle. Food and water were available ad libitum.
After a minimum five-day acclimatization period, animals were ovariectomized under ether anesthesia, then were left to recover for 3 weeks before testing (reconvalescence). All animals were treated in accordance with the guidelines of the European Communities Council Directive (86/609/EEC) and studies were permitted by the Institutional Animal Care Commission.
Estradiol benzoate and progesterone were obtained from Sigma Chemical Co. Inc., Budapest, Hungary. […] E2-CDS as a 3% complex with HPβCD (E2-CDS-CD) was dissolved in distilled water and diluted with 27% HPβCD solution. E2-CDS-CD was synthesized by Alchem Laboratories Corporation, Alachua, Fla., US.
(§1) After recovery from surgery, ovariectomized female rats were divided into four groups and treated once a day for five days intravenously, via a bolus injection through the tail vein, as follows: (1) control, 27% HPβCD solution; (2) 0.003 mg/kg E2-CDS dissolved in 27% HPβCD solution; (3) 0.01 mg/kg E2-CDS dissolved in 27% HPβCD solution; and (4) 0.03 mg/kg E2-CDS dissolved in 27% HPβCD solution. A minimal number of ovariectomized (8 to 12) females were used per group. Intravenous treatments either with E2-CDS or HPβCD (controls) were carried out daily for 5 days beginning 2 days prior to the first day of behavior observations, in a volume of 0.05 ml/100 g body weight.
The behavior test was conducted in a plexiglass observation cage during the dark cycle. During behavioral observations, only a dim red light was on.
An experienced and active male rat was placed in the arena 5 minutes prior to the female. […] The lordosis quotient (LQ) expresses the estrogen effect on sexual receptivity and was calculated as follows: LQ=100×number of lordoses/10 mounts The observation of the sexual behavior of each female was carried out, in the case of E2-CDS, every day for 22 days; in the case of EB, investigations were carried out every day for 10 days. […] Citrated blood samples were taken by retro-orbital sinus puncture under light ether anesthesia. The samples were stored at 4° C. for one hour, then centrifuged at 1000 g for 10 minutes. Plasma was separated and stored at −80° C. until assayed. Plasma LH concentrations from individual samples were measured by double antibody radioimmunoassay kits obtained from Amersham Pharmacia Biotech, Rome, Italy. […] The limit of detection was 15 pg/ml.
Behavioral changes were analyzed using the Mann-Whitney U test (Siegel, Nonparametric Statistics for the Behavioral Sciences, New York; McGraw-Hill Book Company, Inc., 1956). The Fisher exact test was used for percentage comparisons (Zar, Biostatistical Analysis, Prentice Hall, Inc., Englewood Cliffs, N.J., 1974). Serum LH data were analyzed for each time and treatment group by analysis of variance (ANOVA) followed by Bonferroni posthoc test.

castrated male rats = conditions: cited from earlier work
LH = assay: Plasma LH by radioimmunoassay in ovariectomized female rats; type: in vivo, rat; conditions: 0.003, 0.01 and 0.03 mg/kg i.v. daily for 5 days
Protocol: as §1
An experienced and active male rat was placed in the arena 5 minutes prior to the female. […] The lordosis quotient (LQ) expresses the estrogen effect on sexual receptivity and was calculated as follows: LQ=100×number of lordoses/10 mounts The observation of the sexual behavior of each female was carried out, in the case of E2-CDS, every day for 22 days; in the case of EB, investigations were carried out every day for 10 days. […] Citrated blood samples were taken by retro-orbital sinus puncture under light ether anesthesia. […] Plasma LH concentrations from individual samples were measured by double antibody radioimmunoassay kits obtained from Amersham Pharmacia Biotech, Rome, Italy. […]

[2] = cited from earlier work
[3] = estradiol itself, postmenopausal volunteer; cited from earlier work
[4] = 0.01 mg/kg i.v. once a day for 5 days
[5] = 0.03 mg/kg i.v. once a day for 5 days

C[C@]12CC[C@@H]3c4ccc(OC(=O)c5ccccc5)cc4CC[C@H]3[C@@H]1CC[C@@H]2O [estradiol benzoate]
lordosis quotient, effect ([1]; 0.003 mg/kg i.v. once a day for 5 days): slightly enhanced the lordosis quotient, but these effects were not statistically significant | LQ increase compared to E2-CDS [1, 4]: about 3 times less | lordosis quotient LQ, effect [1, 4]: slightly increased the LQ from day 3 to day 10 | statistical significance of LQ increase [1, 4]: not statistically significant | LQ value relative to E2-CDS [1, 5]: about three times lower | duration of LQ enhancement [1, 5]: from day 3 to day 8 | lordosis quotient LQ, effect [1, 5]: significantly enhanced | masculine sexual behavior (castrated male rats; 10 μg/day systemically for 9 to 11 days (Pfaff 1970)): increased mounting, intromissions and ano-genital sniffing and reduced mounting latency | ejaculations (castrated male rats; 100 μg/day for 24 to 28 days (Sodersten 1973)): less affected by estradiol benzoate then by testosterone propionate | mounts and intromissions (castrated male rats; 100 μg/day for 24 to 28 days, rats castrated 6 weeks previously (Sodersten 1973)): equivalent to those observed following similar treatment with testosterone propionate | plasma LH levels, effect (LH): none of the tested dosages of estradiol benzoate gave statistically significant LH suppression

C[C@]12CC[C@H]3[C@@H](CCC4=CC(=O)CC[C@@]43C)[C@@H]1CC[C@@H]2O [testosterone]
estradiol formed (of recovered steroids) ([2]; amygdala (Michael 1986)): 64% | estradiol formed (of recovered steroids) ([2]; hypothalamus (Michael 1986)): 61% | radioactivity reported to be estradiol ([2]; hypothalamus, preoptic area and amygdala (Bonsall 1983)): ≥ 50% | estradiol formed (of recovered steroids) ([2]; preoptic area (Michael 1986)): 43%

C[C@]12CC[C@@H]3c4ccc(O)cc4CC[C@H]3[C@@H]1CC[C@@H]2O [estradiol]
initial serum estradiol level [3]: too high to calculate with the standard curve
